Measured values reported in patent US20240254489A1, “COMPOSITIONS AND METHODS OF TARGETING THE PAX6 SIGNALING PATHWAY TO REDUCE FORMATION OF AMYLOID BETA PLAQUES AND NEUROFIBRILLARY TANGLES” (The University of Hong Kong, priority 2021, published 2024).

Key:
293T-Tau cell line = assay: Western blot of CDK4 and Cyclin D1 in 293T-Tau cell line; format: cell-based; settings: 10 nM and 50 nM
Text: (§1) Experiments were designed to test the effect of palbociclib on Tau in vitro and in vivo.

293T-APP cell line = assay: Western blot of CDK4 and Cyclin D1 in 293T-APP cell line; format: cell-based; settings: 10 nM and 50 nM
Text: as §1

5×FAD mice [1] = assay: Immunofluorescence, Western blot and Aβ deposits in brain of palbociclib-treated 5×FAD mice; format: in vivo, mouse
Text: (§2) FIG. 9A-9D show effects of palbociclib on 5×FAD mice model. FIGS. 9A and 9B is a series of immunofluorescent images showing expression of cell cycle marker (Cyclin D1) (9A) and Pax6 (9B). […] FIG. 9D is an image of an autoradiogram of a Western blot and the associated quantitative bar graph showing the relative expression of E2F-1, CDK6, c-Myb, APP, Iba1 and LC3B in palbociclib treatment group compared to controls. FIG. 9E is a series of images of brain tissue showing the relative Aβ deposits in palbociclib treated mouse brain tissue compared to controls. FIG. 9F is a series of images of liver, gallbladder and kidney in palbociclib treated mouse. FIGS. 9G-9J show the effect of palbociclib treatment on learning and memory ability of 5×FAD female mice in morris water maze. FIG. 9G is a schematic diagram of palbociclib administration with 60 mg/(kg*d); 10-month-old wild-type mice (WT) and 5×FAD mice were administrated with solvent (ctrl) and 60 mg/kg/day palbociclib (palb) for 2 months via oral garage; Morris water maze with n(WT-ctrl)=5, n(5×FAD-ctrl)=5, n(5×FAD-palb)=3 were performed.
FIGS. 8A-8E show the effects of palbociclib on 5×FAD mice models.
FIGS. 9A-9D show effects of palbociclib on 5×FAD mice model. FIGS. 9A and 9B is a series of immunofluorescent images showing expression of cell cycle marker (Cyclin D1) (9A) and Pax6 (9B). […] FIG. 9D is an image of an autoradiogram of a Western blot and the associated quantitative bar graph showing the relative expression of E2F-1, CDK6, c-Myb, APP, Iba1 and LC3B in palbociclib treatment group compared to controls. FIG. 9E is a series of images of brain tissue showing the relative […] deposits in palbociclib treated mouse brain tissue compared to controls.

5×FAD mice [2] = assay: Morris water maze of palbociclib-treated 5×FAD mice; format: in vivo, mouse
Text: as §2
FIGS. 9G-9J show the effect of palbociclib treatment on learning and memory ability of 5×FAD female mice in morris water maze. FIG. 9G is a schematic diagram of palbociclib administration with 60 mg/(kg*d); 10-month-old wild-type mice (WT) and 5×FAD mice were administrated with solvent (ctrl) and 60 mg/kg/day palbociclib (palb) for 2 months via oral garage; Morris water maze with n(WT-ctrl)=5, n(5×FAD-ctrl)=5, n(5×FAD-palb)=3 were performed.

[3] = Images of liver, gallbladder and kidney in palbociclib treated mouse; format: in vivo
Text: as §2
FIGS. 9A-9D show effects of palbociclib on 5×FAD mice model. […] FIG. 9D is an image of an autoradiogram of a Western blot and the associated quantitative bar graph showing the relative expression of E2F-1, CDK6, c-Myb, APP, Iba1 and LC3B in palbociclib treatment group compared to controls. […]

cortical neurons = assay: Neuronal survival assay of amyloid β neurotoxicity; format: cell-based, mouse; settings: co-treatment with amyloid β
Procedure: The survival assay of amyloid β neurotoxicity was performed as reported previously^33. At various time periods, neurons were lysed in a cell lysis buffer. Under light microscopy, the numbers of intact nuclei indicating living cells was quantified and expressed relative to the number of cells in the control group without amyloid β treatment.
The brains were dissociated from skulls, meninges removed and cortices isolated. Individual cells were dissociated by incubation with trypsin and DNase (Sigma). Cells were plated on poly-d-lysine (Sigma)-coated 24-well plates at a density of 1.5×10^6 cells/ml in Neurobasal medium (Thermo Fisher Scientific) supplemented with B-27 (Thermo Fisher Scientific), N-2 (Thermo Fisher Scientific), and glutamine (0.5 mM, Thermo Fisher Scientific). Three days after seeding, cultured cells were transfected with siRNAs (60 pmol/24-well) using Lipofactamine 2000 transfection reagent (Thermo Fisher Scientific). Twenty-four hours after transfection, cells were exposed to amyloid β1-42 (5 μM) for the indicated time periods and then processed for subsequent assays. SiRNAs from Santa Cruz are provided as pools consisting of three to five target-specific 19-25 nucleotides siRNAs designed to specifically knockdown the expression of mouse Pax6, c-Myb or E2F1. Silencer Select Pre-designed siRNAs were from Ambion, non-targeting siRNA was used as a negative control. […]

Pax6 and c-Myb = assay: RT-PCR and Western blot of amyloid β-induced Pax6 and c-Myb in cortical neurons; format: cell-based, mouse
Procedure: Human brain tissues or mouse cortical neurons were dissolved in ice-cold 1×RIPA buffer (Cell Signaling) with proteinase inhibitor cocktail (Sigma). Proteins were separated on NuPAGE Novex 4-12% Bis-Tris gels (Thermo Fisher Scientific) and transferred to nitrocellulose membranes. Membranes were probed with indicated primary antibodies. The blots were analysed and quantified by densitometry using ImageJ software (Version 1.52t, National Institutes of Health).
Total mRNA was prepared from cell cultures utilizing TRIzol reagent (Thermo Fisher Scientific). Semi-quantitative RT-PCR experiments were performed to examine RNA expression of target genes. Briefly, 2 μg of total RNA was reverse-transcribed using SuperScript First-Strand Synthesis System (Thermo Fisher Scientific). The first-strand cDNA was used as a template. β-actin was used as the normalisation control.
Primary cortical neurons were derived from embryonic day 14.5 (E14.5) C57BL/6 mice^31. The brains were dissociated from skulls, meninges removed and cortices isolated. Individual cells were dissociated by incubation with trypsin and DNase (Sigma). Cells were plated on poly-d-lysine (Sigma)-coated 24-well plates at a density of 1.5×10^6 cells/ml in Neurobasal medium (Thermo Fisher Scientific) supplemented with B-27 (Thermo Fisher Scientific), N-2 (Thermo Fisher Scientific), and glutamine (0.5 mM, Thermo Fisher Scientific). […]

Pax6 promoter = Pax6 promoter luciferase reporter assay in amyloid β-treated cortical neurons; format: cell-based, mouse; settings: co-treatment with amyloid β
Procedure: Cortical neurons were transfected with luciferase reporter constructs three days after plating. After amyloid β treatment, luciferase activity of a target gene was determined using the dual-luciferase reporter assay system (Promega) in a microplate luminometer. Luciferase activity was normalised against Renilla activity for the transfection efficiency using a pRL Renilla luciferase control reporter construct. Next, experiments were designed to investigate whether the upregulation of Pax6 and c-Myb is associated with an increase in transcriptional activation of their targets. Cortical neurons were transfected with a P6CON luciferase reporter construct, which contained three standard Pax6 binding sites^39 to measure Pax6 binding; a luciferase construct containing the Pax6 P1 promoter^40 to measure Pax6 promoter activation; or with a luciferase construct containing c-Myb binding sites to measure c-Myb binding. The same luciferase assays were then performed after amyloid β treatment.

cdks 1, 2, 4 and 7 = settings: in vitro; cited from earlier work
C/EBPa = settings: cited from earlier work
[4] = 5×FAD female mice, 60 mg/kg/day oral 2 months

## CC(=O)c1c(C)c2cnc(Nc3ccc(N4CCNCC4)cn3)nc2n(C2CCCC2)c1=O [palbociclib]
293T-Tau cell line
  expression levels of CDK4 and Cyclin D1: decreased
293T-APP cell line
  expression levels of CDK4 and Cyclin D1: Decreased
5×FAD mice [1]
  Aβ deposit in brain tissue: relative fewer
  expression of Pax6: decreased expression
  expression of cell cycle marker (Cyclin D1): increased expression
5×FAD mice [1]; treatment group compared to controls
  expression of E2F-1: relative decreased expression
5×FAD mice [2]; [4]
  frequency of crossing platform in probe trial: significantly increased
  latency to platform in probe trial: significantly improved to the level of the wild type control
5×FAD mice [2]; mouse, in vivo
  memory and learning of 5×FAD mice: able to improve memory and learning
[3]
  side effect (liver, gallbladder and kidney images): no side effect

## CN1CC[C@H](c2c(O)cc(O)c3c(=O)cc(-c4ccccc4Cl)oc23)[C@H](O)C1 [flavopiridol]
Cortical neurons
  amyloid β-induced death of cortical neurons: protected cortical neurons against amyloid β-induced death
Pax6 and c-Myb
  amyloid β-induced upregulation of Pax6 and c-Myb mRNA and protein: significantly blocked
Pax6 promoter
  amyloid β-induced activation of the Pax6 promoter: blocked
Cdks 1, 2, 4 and 7
  inhibition of all cdks tested (cdks 1, 2, 4 and 7): potent and specific in vitro inhibition

## COc1ccccc1-n1c(/C=C/c2ccc(O)c(O)c2)nc2ccccc2c1=O [ICCB280]
C/EBPa
  induction of C/EBPa: potent inducer
